Values quoted from earlier work in patent publication US6734210B2, “Therapeutically improved salts of azelaic acid” (priority 2000, dated 2004).

- solubility in cosmetic oils (cosmetic oils): little or no solubility
- maximum azelaic acid content of a water solution (water): about 0.24 % by weight (w/w)
SMILES: O=C(O)CCCCCCCC(=O)O [azelaic acid]
